Test results as given in patent US9655877B2, “Therapeutic methods for treating inflammation and immune system disorders” (priority 2009, dated 2017).

Assays:
Neuro-2a cells [1] = experiment: Neuro-2a cells treated with compound alone in the culture media; assay type: cell-based, murine; conditions: compound alone in the culture media (data not shown)
From the text: Specifically, a significant reduction in cell death, to less than 15% and 25%, respectively, was observed.

[2] = tested on: TNF-α mRNA and iNOS expression in BV-2 cells; experiment: TNF-α mRNA and iNOS expression in LPS-treated BV-2 cells, RT-PCR; assay type: cell-based, murine; conditions: compound 1 hour before LPS for 6 hours
Experimental: Semi-quantitative PCR assays of targeted genes were performed in a 25 μl reaction mixture containing 1.5 mM MgCl2, 0.2 mM of each deoxynucleoside triphosphate, 0.25 μM of each primer, 2 units of Taq polymerase (GE Healthcare), and 1 μl of cDNA. PCR primer sets for TNF-α and glyceraldehyde-3-phosphate dehydrogenase (GAPDH) were as follows. TNF-α (upstream: 5′-GGCTCCAGGCGGTGCT TGTCC-3′ (SEQ ID NO:1); downstream: 5′-[…]-3′ (SEQ ID NO:2)), and GAPDH (upstream: 5′-[…]-3′ (SEQ ID NO:3); downstream: 5′-[…]-3′ (SEQ ID NO:4). The thermal cycling condition for PCR was 94° C. for 30 s, 60° C. for 30 s, and 72° C. for 1 min. The cycling reactions were repeated for 24 more cycles.
The levels of TNF-α mRNA and iNOS mRNA were determined by real-time RT-PCR (Roche 480II). 18S ribosomal RNA (18S) was used as an internal control. All of the real-time RT-PCR probes were obtained from the Universal Probe Library (Roche). All of the samples were performed in duplicate. […] The relative mRNA expression of the targeted genes was calculated by 2^−ΔΔCT and expressed as fold induction.
To study the role of senkyunolide A in suppressing TNF-α production, 10^5 cells/ml BV-2 cells are seeded in 24-well plates (0.5 ml in each well). […] Total RNA of the treated samples is isolated and subjected to semi-quantitative RT-PCR assays (FIG. 9A) and quantitative RT-PCR assays (FIGS. 9B and C) using specific […] TNF-α primers.

Neuro-2a cells [3] = experiment: Conditioned culture medium transfer model (LPS-treated BV-2 supernatant on Neuro-2a), MTT assay; assay type: cell-based, murine; conditions: supernatant of BV-2 cells treated with 100 ng/ml LPS and 50 μg/ml compound 18 h, on Neuro-2a 48 h; LPS only more than 40%
Experimental: BV-2 cells (3×10^5 cells/ml) were first treated with 100 ng/ml LPS for 18 h, in the presence of either 0.05% DMSO or 50 μg/ml senkyunolide A or Z-ligustilide. After centrifugation, the supernatants from BV-2 cells were transferred to Neuro-2a cells ([…]) for 48 h. Viability of Neuro-2a cells was measured using MTT assays. Results are shown as mean SD from three independent experiments. *p<0.05 compared with DMSO+LPS.
BV-2 cells were seeded at 3×10^5 cells/ml in 12-well culture plates (1 ml in each well). They were co-treated with or without 100 ng/ml LPS, in the presence of 0.05% DMSO, 50 μg/ml senkyunolide A, or 50 μg/ml Z-ligustilide, for 18 h. The supernatants were then collected and centrifuged at 13,200 rpm for 3 min. The resulting supernatants were then transferred to Neuro-2a cells (1×10^5 cells/ml in 24-well culture plates), which were incubated for another 48 h. Cell viability of Neuro-2a cells was measured by MTT assay.
Briefly, to investigate the physiological significance of Sen A and Z-Lig, a conditioned culture medium transfer model, commonly used for studying neuronal cell death induced by microglial activation, was adopted. After BV-2 cells were challenged with LPS, the supernatants were collected and centrifuged. The conditioned culture media were then transferred to Neuro-2a cell cultures.

[4] = tested on: TNF-α production in human blood macrophages; experiment: LPS-induced TNF-α production in human blood macrophages (PBMac), ELISA; assay type: cell-based; conditions: 25 or 50 μg/ml for 24 hours, then 1 ng/ml LPS for 24 hours
Experimental: To measure the TNF-α level in cell culture supernatants, BV-2 cells were seeded at 1×10^5 cells/ml in the volume of 0.5 ml in 24-well culture plates. They were co-treated with or without 100 ng/ml LPS in the absence or presence of indicated concentrations of bioactive compounds of LCX for 18 h. In addition, PBMac cells were seeded at 1×10^6 cells/ml in the volume of 0.5 ml in 24-well plates. After incubation, the supernatants were collected and TNF-α levels were determined by ELISA according to the manufacturer's instructions (R&D Systems). […] To study the effect of Sen A and Z-Lig at various concentrations on TNF-α production, 1×10^6 cells/ml (FIG. 6) PBMac cells are seeded in 24-well plates (0.5 ml in each well). Cells are treated with 25 μg/ml or 50 μg/ml Sen A, Z-Lig, or DMSO for 24 hours prior to the addition of 1 ng/ml LPS, and further incubated for another 24 hours. The culture supernatants are collected and the level of secreted TNF-α is measured by ELISA according to the manufacturer's instructions (R&D Systems, Minneapolis, Minn.).

Structure (SMILES): CCCC[C@H]1OC(=O)C2=C1CCC=C2 [senkyunolide A]
- cell death with compound alone (Neuro-2a cells [1]): did not show cell death
- effect on TNF-α mRNA expression [2]: inhibits TNF-α mRNA
- effect on iNOS expression [2]: inhibits TNF-α mRNA and iNOS expression
- cell death of Neuro-2a cells (Neuro-2a cells [3]): less than 15%
- effect on endotoxin-induced TNF-α production [4]: suppress endotoxin-induced TNF-α production in a dose-dependent manner
